Earlier results as cited in US9326976B2, “Carbamate derivatives” (CHIESI FARMACEUTICI S.P.A., priority 2014, dated 2016).

Test system: COPD patients
[1] = patients with severe disease, frequent exacerbations and mucus hypersecretion

Compound: O=C(Nc1c(Cl)cncc1Cl)c1ccc(OC(F)F)c(OCC2CC2)c1 [roflumilast]
- reduction of the numbers of neutrophils in sputum (COPD patients, oral, given over 4 weeks): 36%
- improvement of FEV 1 [1]: approximately 50 mL
- reduction of exacerbation [1]: about 15%
